Consider 1 molecule from patent publication US11116778B2, “Prodrugs of ALOX-15 inhibitors and methods of using the same” (EMPIRICO INC., priority 2019, dated 2021).

Holding throughout (format): in vivo
One data set has as its system POSTN mRNA. The data set is described as follows: POSTN mRNA by RT-qPCR in rabbit nasal mucosa. The settings on record: rostral and caudal regions; rabbits, compound 5 10 mM intranasal. As for the experimental part: (§1) Six (6) female NZW rabbits were employed in this study. Rabbits were obtained from Covance (Denver Pa.). Rabbits were between approximately 10 and 12 months of age at the time of study start. At time point 0, all animals received 50 μL of solution containing rabbit IL4 (RND Systems/Biotechne) and human IL13 (PreproTech) at a concentration of 0.25 mg/mL each in 0.5×PBS containing 12.5 mg/mL BSA per nostril. This was administered intranasally via a venous catheter attached to a micropipette. The animal was positioned in a supine manner and the venous catheter inserted into the nostril. The volume was introduced into the nasal cavity and the same procedure was repeated with the other nostril. […]
(§2) Relative ALOX15 and POSTN mRNA levels in nasal mucosa were measured by RT-qPCR. […] The level of ALOX15 or POSTN mRNA from each sample was measured in triplicate by real-time qPCR on an Applied Biosystems 7500 Fast Real-Time PCR machine using the TaqMan Gene Expression Assay for rabbit ALOX15 (ThermoFisher, assay #Oc03823548_s1). The level of GAPDH mRNA was measured in biplex reactions using TaqMan Gene Expression Assay (ThermoFisher, assay #Oc03823402_g1) and used to determine relative ALOX15 mRNA levels in each well using the delta-delta Ct method. […] Relative POSTN mRNA levels were measured as above using TaqMan Gene Expression Assay specific for rabbit POSTN mRNA (ThermoFisher, assay #Oc06804808_s1). […]
Background: In qPCR the cycle at which signal appears reflects the starting amount.

The test system of a further data set is ALOX15 mRNA. The experiment in a line: ALOX15 mRNA by RT-qPCR in rabbit nasal mucosa. The settings on record: rostral and caudal regions; rabbits, compound 5 10 mM intranasal. How it is done:
as §1, §2

A short description of data set [1]: Levels of compound 3 and compound 5 in rabbit nasal lavage and serum after nasal administration of compound 5. As to conditions: rabbits. How it is done: Six (6) female NZW rabbits were employed in this study. Rabbits were obtained from Covance (Denver Pa.). Rabbits were between approximately 10 and 12 months of age at the time of study start. At time point 0, all animals received 50 μL of solution containing rabbit IL4 (RND Systems/Biotechne) and human IL13 (PreproTech) at a concentration of 0.25 mg/mL each in 0.5×PBS containing 12.5 mg/mL BSA per nostril. This was administered intranasally via a venous catheter attached to a micropipette. The animal was positioned in a supine manner and the venous catheter inserted into the nostril. The volume was introduced into the nasal cavity and the same procedure was repeated with the other nostril.
At the 2, 4, and 6 hour time points, animals in Group 1 (n=3) received 0.2 mL of vehicle (0.9% saline) per nostril and the animals in Group 2 (n=3) received 0.2 mL of compound 5 (10 mM) in vehicle per nostril. The dosing of vehicle and compound 5 proceed as follows: The animal was positioned in a supine manner in a restraint bag and a mucosal atomization device (MAD) attached to the pre-filled tuberculin syringe was inserted into the nostril and introduced into the nasal cavity. The same procedure was repeated with the other nostril.
At the 8 hour time point, all the nostrils of all animals were lavaged with 1 mL of 0.9% saline per nostril and the resulting fluid collected. Intranasal lavages were performed as follows: The animals were held sternally in a restraint bag with the head over the edge of the table and the rear of the animal elevated higher than the head. A flexible venous catheter was inserted in the nostril until resistance was felt. The 1 mL of saline was introduced through the catheter into the nasal cavity. The nasal lavage returned from the nostril was collected via a funnel into a conical tube and the approximate volume recorded. This procedure was repeated for the other nostril. The lavage was stored at approximately −70° C. until analysis. Following (<10 minutes) the 8 hour time point lavage, blood was collected from all animals, processed to serum, and frozen at approximately −70° C. until analysis.
Nasal lavage and serum samples were analyzed for the levels of compound 3 and compound 5. Frozen tissue samples were weighed (20-120 mg) and placed into 2 mL CK14 homogenizing tubes (Bertin) and 500 μL of methanol containing 1 mM butylated hydroxy toluene (BHT) and 1 mM tris(2-carboxyethyl)phosphine (TCEP) was added. The tubes were placed in a Precellys 24 tissue homogenizer (Bertin) and run at 6000 rpm six times for 20 seconds with a 10 second pause between cycles. The tubes containing the homogenized tissue were then placed in a microfuge and centrifuged for 5′ at 14,000 rpm to pellet any insoluble material. Compound 3 was quantified using LC-MS/MS (QTrap5500, Applied Biosystems). Q1/Q3 Masses: 306.00/135.00 using a deschloro derivative of compound 3 (lacking chlorine at 4 position of pyrazole ring) as an internal standard. The Q1/Q3 Masses are 272.00/101.00 Da for the internal standard. Compound 3 was extracted using liquid/liquid extraction with methanol as a diluent. […] Compound 5 was quantified using LC-MS/MS (QTrap5500, Applied Biosystems). […] Compound 5 was detected in the lavage samples from Group 2 animals (rabbit 1, rabbit 2, rabbit 3) and ranged in average concentration from 0.016 uM-0.35 uM. […]

Turning to `O=C(Nc1ccc(F)cc1Cl)c1nn(COP(=O)(O)O)c(Cl)c1Cl` [compound 5, (4,5-dichloro-3-((2-chloro-4-fluorophenyl)carbamoyl)-1H-pyrazol-1-yl)methyl dihydrogen phosphate], the “relative level of POSTN mRNA in nasal mucosa versus vehicle (FIG. 11)” value in the data set with POSTN mRNA was “lower”. In addition, the “relative level of ALOX15 mRNA in nasal mucosa versus vehicle (FIG. 11)” value in the data set with ALOX15 mRNA is reported as “lower”. In data set [1] (female, NZW, rabbit, nasal lavage, other: intranasal (mucosal atomization device), 0.2 mL of 10 mM compound 5 per nostril at 2, 4, 6 hours, lavage at 8 hours, range over 3 rabbits, read-out: average concentration of compound 5 in nasal lavage (FIG. 8)), the concentration at 8 h was in the range of 16 to 350 nM. For the same molecule, the “level in serum samples” value in data set [1] (intranasal compound 5 10 mM, blood after the 8 hour lavage) is listed as “no quantifiable”. In data set [1] (intranasal compound 5 10 mM, lavage at 8 hours), the “conversion of compound 5 to compound 3 in nasal lavage (FIG. 8)” value is “majority of compound 5 was converted to compound 3”.
